Experiment [1] concerns Immortalised Mouse Dermal Fibroblasts (MDFs). The experiment in a line: Cellular assay: inhibition of TSI induced necroptosis, CellTitre-Glo viability. To be noted: Mus musculus, Fibroblast; MDF, 3 hours TSI cocktail, Table 27; read-out: Inhibition of TSI-induced necroptosis (IC50 cell-based assay) in MDF. In a few lines:
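Immortalised mouse dermal fibroblasts (2200 cells/well) pretreated 30 min with compound, 10-point 1:3 series from 36 μM, 0.3% DMSO. Then 3 h at 37° C. with TNF (100 ng/ml), Smac mimetic (500 nM) and IDN-6556 (10 μM). CellTiter-Glo luminescence normalised to DMSO (100%) and DMSO+TSI (0%); IC50 from 4-parameter logistic fit.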

The target in another experiment is human MLKL (full length) (Homo sapiens (Human), UniProt Q8NB16). The experiment in a line: KINOMEscan binding assay, human MLKL (full length). To be noted: hMLKL, Table 25; read-out: MLKL (KD). In a few lines: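 Compound dilutions (11 points, 3-fold, mostly from 30,000 nM, 1% DMSO final) competed with immobilized ligand for DNA- or phage-tagged protein, and bead-bound protein was measured by qPCR. Kd values came from Hill-equation fits with slope −1 (Levenberg-Marquardt).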

In another experiment the target is endogenous MLKL in U937 (Homo sapiens (Human), UniProt Q8NB16). Briefly: Degradation assay: endogenous MLKL in U937 (western blot). As to conditions: U937, 24 h incubation, read-out: Degradation of endogenous MLKL in U937 (DC50 cell-based assay). Summed up:
(§1)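 MDF (seeded the day before) or U937 cells were treated 24 h at 37 °C, 10% CO2 with compound at 10, 2, 0.4, 0.08 and 0.016 μM final. Endogenous MLKL was quantified by western blot (anti-MLKL 3H1), normalized to GAPDH. Percent degradation was taken relative to DMSO control.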
Background: Immunoblotting shows a protein as a band on a membrane.

A further experiment addresses endogenous MLKL in MDF (Mus musculus (Mouse), UniProt Q9D2Y4). The experiment in a line: Degradation assay: endogenous MLKL in MDF (western blot). To be noted: MDF cells, 24 h incubation with compound, MLKL adjusted for loading with GAPDH, normalized to DMSO only control, read-out: Degradation of endogenous MLKL in MDF (DC50 cell-based assay). In a few lines: as §1

The results in this text go back to patent US20250115598A1 (Anaxis Pharma Pty Ltd, priority 2021, published 2025).

Each structure is given as a SMILES string. Bounds are passed on as bounds.

Sequence of endogenous MLKL in MDF (Q9D2Y4 whole entry): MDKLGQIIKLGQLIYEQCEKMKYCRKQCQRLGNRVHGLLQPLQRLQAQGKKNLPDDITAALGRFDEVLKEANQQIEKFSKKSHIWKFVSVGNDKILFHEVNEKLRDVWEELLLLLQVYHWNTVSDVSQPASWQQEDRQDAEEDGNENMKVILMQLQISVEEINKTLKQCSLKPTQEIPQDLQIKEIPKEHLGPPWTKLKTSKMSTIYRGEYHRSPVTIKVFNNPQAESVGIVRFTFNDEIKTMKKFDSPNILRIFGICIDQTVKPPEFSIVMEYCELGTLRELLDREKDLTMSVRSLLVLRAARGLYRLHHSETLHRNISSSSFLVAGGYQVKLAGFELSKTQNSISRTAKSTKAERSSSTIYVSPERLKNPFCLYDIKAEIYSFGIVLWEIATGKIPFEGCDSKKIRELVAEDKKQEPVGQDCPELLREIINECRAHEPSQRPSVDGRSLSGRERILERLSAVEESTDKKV
Sequence of endogenous MLKL in U937 (Q8NB16 whole entry): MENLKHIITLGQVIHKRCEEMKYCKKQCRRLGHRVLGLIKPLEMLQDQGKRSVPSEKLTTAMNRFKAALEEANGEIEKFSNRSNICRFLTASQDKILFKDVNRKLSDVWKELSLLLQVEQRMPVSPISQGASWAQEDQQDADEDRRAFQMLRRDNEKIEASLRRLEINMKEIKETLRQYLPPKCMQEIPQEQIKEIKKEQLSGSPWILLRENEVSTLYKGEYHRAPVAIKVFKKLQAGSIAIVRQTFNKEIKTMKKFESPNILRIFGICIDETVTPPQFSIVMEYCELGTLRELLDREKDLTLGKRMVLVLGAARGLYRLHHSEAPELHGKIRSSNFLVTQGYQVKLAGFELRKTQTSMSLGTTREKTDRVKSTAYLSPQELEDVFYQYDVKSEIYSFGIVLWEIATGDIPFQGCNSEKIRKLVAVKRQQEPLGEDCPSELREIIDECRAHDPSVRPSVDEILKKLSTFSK
Sequence of human MLKL (full length) (Q8NB16 whole entry): as above

`C[C@H](Oc1cc(-c2nn(C)c3c(-c4cnn(C5CCN(C(=O)COc6ccc7c(c6)C(=O)N(C6CCC(=O)NC6=O)C7=O)CC5)c4)cnc(N)c23)ccc1NS(=O)(=O)C(F)F)c1ccc(F)cc1` (some centres unmarked) [Compound 1085, N-[4-(4-amino-7-{1-[1-(2-{[2-(2,6-dioxopiperidin-3-yl)-1,3-dioxo-2,3-dihydro-1H-isoindol-5-yl]oxy}acetyl)piperidin-4-yl]-1H-pyrazol-4-yl}-1-methyl-1H-pyrazolo[4,3-c]pyridin-3-yl)-2-[(1 S)-1-(4-fluorophenyl)ethoxy]phenyl]-1,1-difluoromethanesulfonamide]: the half-inhibitory concentration (IC50) (usually the midpoint of a concentration-inhibition curve) in experiment [1] is less than 1 µM. Moreover, the Kd – broadly, a measure of binding affinity in units of concentration – at human MLKL (full length) is less than 0.01 µM. Also, the values for the 50% degradation concentration (DC50) on endogenous MLKL in U937 and on endogenous MLKL in MDF were less than 1 µM and 1 to 10 µM, respectively.
As to `C[C@H](Oc1cc(-c2nn(C)c3c(-c4cnn(C5CCN(C(=O)CC(=O)N6CCN(c7cccc8c7C(=O)N(C7CCC(=O)NC7=O)C8=O)CC6)CC5)c4)cnc(N)c23)ccc1NS(=O)(=O)C(F)F)c1ccc(F)cc1` (stereo partly drawn) [Compound 1098, N-[4-(4-amino-7-{1-[1-(3-{4-[2-(2,6-dioxopiperidin-3-yl)-1,3-dioxo-2,3-dihydro-1H-isoindol-4-yl]piperazin-1-yl}-3-oxopropanoyl)piperidin-4-yl]-1H-pyrazol-4-yl}-1-methyl-1H-pyrazolo[4,3-c]pyridin-3-yl)-2-[(1S)-1-(4-fluorophenyl)ethoxy]phenyl]-1,1-difluoromethanesulfonamide], in experiment [1], the half-inhibitory concentration (IC50) lay within 1 to 10 µM. The equilibrium dissociation constant (Kd) at human MLKL (full length) is less than 0.01 µM. Also, the DC50 on endogenous MLKL in U937 and at endogenous MLKL in MDF was less than 1 µM each time.
As to `Cn1nc(-c2ccc(NS(=O)(=O)C(F)F)c(F)c2)c2c(N)ncc(-c3cnn(C4CCN(C(=O)N5CCN(c6cccc7c6C(=O)N(C6CCC(=O)NC6=O)C7=O)CC5)CC4)c3)c21` (centres unmarked) [Compound 1131, N-(4-{4-amino-7-[1-(1-{4-[2-(2,6-dioxopiperidin-3-yl)-1,3-dioxo-2,3-dihydro-1H-isoindol-4-yl]piperazine-1-carbonyl}piperidin-4-yl)-1H-pyrazol-4-yl]-1-methyl-1H-pyrazolo[4,3-c]pyridin-3-yl}-2-fluorophenyl)-1,1-difluoromethanesulfonamide], in experiment [1], the IC50 is 1 to 10 µM. In addition, the Kd at human MLKL (full length) was less than 0.01 µM. Besides, the DC50 at endogenous MLKL in U937 and at endogenous MLKL in MDF was less than 1 µM each time.
Consider `Cc1ncsc1-c1ccc(CNC(=O)[C@@H]2C[C@@H](O)CN2C(=O)[C@@H](NC(=O)CCCCCOc2ccc(-c3cnc(N)c4c(-c5ccc(NS(=O)(=O)C(F)F)c(O[C@@H](C)c6ccc(F)cc6)c5)nn(C)c34)cc2)C(C)(C)C)cc1` [Compound 1042, (2S,4R)-1-[(2S)-2-[6-(4-{4-amino-3-[4-(difluoromethanesulfonamido)-3-[(1S)-1-(4-fluorophenyl)ethoxy]phenyl]-1-methyl-1H-pyrazolo[4,3-c]pyridin-7-yl}phenoxy)hexanamido]-3,3-dimethylbutanoyl]-4-hydroxy-N-{[4-(4-methyl-1,3-thiazol-5-yl)phenyl]methyl}pyrrolidine-2-carboxamide], for which the half-maximal inhibitory concentration (IC50) in experiment [1] lay within 1 to 10 µM. Moreover, the Kd at human MLKL (full length) was 0.01 to 1 µM. Further, the DC50 at endogenous MLKL in U937 and at endogenous MLKL in MDF was less than 1 µM in each case.
Take `C[C@H](Oc1cc(-c2nn(C)c3c(-c4cnn(C5CCN(Cc6cccc(CNc7cccc8c7C(=O)N(C7CCC(=O)NC7=O)C8=O)c6)CC5)c4)cnc(N)c23)ccc1NS(=O)(=O)C(F)F)c1ccc(F)cc1` (stereo partly drawn) [Compound 1095, N-(4-{4-amino-7-[1-(1-{[3-{{[2-(2,6-dioxopiperidin-3-yl)-1,3-dioxo-2,3-dihydro-1H-isoindol-4-yl]amino}methyl)phenyl]methyl}piperidin-4-yl)-1H-pyrazol-4-yl]-1-methyl-1H-pyrazolo[4,3-c]pyridin-3-yl}-2-[(1S)-1-(4-fluorophenyl)ethoxy]phenyl)-1,1-difluoromethane-sulfonamide]: the concentration for half-maximal inhibition (IC50) in experiment [1] is less than 1 µM. Further, the Kd at human MLKL (full length) was in the range of 0.01 to 1 µM. The half-maximal degradation concentration (DC50) on endogenous MLKL in U937 and on endogenous MLKL in MDF was less than 1 µM in each case.
Turning to `C[C@H](Oc1cc(-c2nn(C)c3c(-c4cnn(C5CCN(C(=O)C6CCN(c7cccc8c7C(=O)N(C7CCC(=O)NC7=O)C8=O)CC6)CC5)c4)cnc(N)c23)ccc1NS(=O)(=O)C(F)F)c1ccc(F)cc1` (stereo partly drawn) [Compound 1044, N-(4-{4-amino-7-[1-(1-{1-[2-(2,6-dioxopiperidin-3-yl)-1,3-dioxo-2,3-dihydro-1H-isoindol-4-yl]piperidine-4-carbonyl}piperidin-4-yl)-1H-pyrazol-4-yl]-1-methyl-1H-pyrazolo [4,3-c]pyridin-3-yl}-2-[(1S)-1-(4-fluorophenyl)ethoxy]phenyl)-1,1-difluoromethanesulfonamide], the 50% inhibitory concentration (IC50) in experiment [1] is less than 1 µM. The dissociation constant Kd at human MLKL (full length) was less than 0.01 µM. The DC50 on endogenous MLKL in U937 and on endogenous MLKL in MDF was less than 1 µM each time.
As for `C[C@H](Oc1cc(-c2nn(C)c3c(-c4cnn(C5CCN(Cc6ccc(CNc7cccc8c7C(=O)N(C7CCC(=O)NC7=O)C8=O)cc6)CC5)c4)cnc(N)c23)ccc1NS(=O)(=O)C(F)F)c1ccc(F)cc1` (stereo partly drawn) [Compound 1115, N-(4-{4-amino-7-[1-(1-{[4-({[2-(2,6-dioxopiperidin-3-yl)-1,3-dioxo-2,3-dihydro-1H-isoindol-4-yl]amino}methyl)phenyl]methyl}piperidin-4-yl)-1H-pyrazol-4-yl]-1-methyl-1H-pyrazolo[4,3-c]pyridin-3-yl}-2-[(1S)-1-(4-fluorophenyl)ethoxy]phenyl)-1,1-difluoromethanesulfonamide], in experiment [1], the half-maximal inhibitory concentration (IC50) was less than 1 µM. On human MLKL (full length), the Kd fell in the range of 0.01 to 1 µM. In addition, the DC50 on endogenous MLKL in U937 and on endogenous MLKL in MDF was less than 1 µM in each case.
On to `C[C@H](Oc1cc(-c2nn(C)c3c(-c4cnn(C5CCN(C(=O)[C@H]6CC[C@H](Nc7cccc8c7C(=O)N(C7CCC(=O)NC7=O)C8=O)CC6)CC5)c4)cnc(N)c23)ccc1NS(=O)(=O)C(F)F)c1ccc(F)cc1` (stereo partly drawn) [Compound 1058, N-{4-[4-amino-1-methyl-7-(1-{1-[(trans)-4-{[2-(2,6-dioxopiperidin-3-yl)-1,3-dioxo-2,3-dihydro-1H-isoindol-4-yl]amino}cyclohexane-carbonyl]piperidin-4-yl}-1H-pyrazol-4-yl)-1H-pyrazolo[4,3-c]pyridin-3-yl]-2-[(1S)-1-(4-fluorophenyl)ethoxy]phenyl}-1,1-difluoromethanesulfonamide], for which, in experiment [1], the IC50 was less than 1 µM. The Kd at human MLKL (full length) was in the range of 0.01 to 1 µM. The 50% degradation concentration (DC50) (usually the concentration giving 50% degradation) on endogenous MLKL in U937 was 1 to 10 µM; at endogenous MLKL in MDF it was less than 1 µM.
`Cc1ncsc1-c1ccc(CNC(=O)[C@@H]2C[C@@H](O)CN2C(=O)[C@@H](NC(=O)C2(F)CC2)C(C)(C)C)c(OCCCCCCn2cc(-c3cnc(N)c4c(-c5ccc(NS(=O)(=O)C(F)F)c(O[C@@H](C)c6ccc(F)cc6)c5)nn(C)c34)cn2)c1` [Compound 1057, (2S,4R)-N-[(2-{[6-(4-{4-amino-3-[4-(difluoromethanesulfonamido)-3-[(1S)-1-(4-fluorophenyl)ethoxy]phenyl]-1-methyl-1H-pyrazolo[4,3-c]pyridin-7-yl}-1H-pyrazol-1-yl)hexyl]oxy}-4-(4-methyl-1,3-thiazol-5-yl)phenyl)methyl]-1-[(2S)-2-[(1-fluorocyclopropyl)formamido]-3,3-dimethylbutanoyl]-4-hydroxypyrrolidine-2-carboxamide]: the IC50 in experiment [1] was 1 to 10 µM. Further, on human MLKL (full length), the dissociation constant (Kd) lay in the range of 0.01 to 1 µM. Besides, the results for the DC50 on endogenous MLKL in U937 and at endogenous MLKL in MDF were less than 1 µM and 1 to 10 µM, respectively.
Turning to `C[C@H](Oc1cc(-c2nn(C)c3c(-c4cnn(C5CCN(C(=O)C6CC7(C6)CN(c6cccc8c6C(=O)N(C6CCC(=O)NC6=O)C8=O)C7)CC5)c4)cnc(N)c23)ccc1NS(=O)(=O)C(F)F)c1ccc(F)cc1` (stereo partly drawn) [Compound 1074, N-(4-{4-amino-7-[1-(1-{2-[2-(2,6-dioxopiperidin-3-yl)-1,3-dioxo-2,3-dihydro-1H-isoindol-4-yl]-2-azaspiro[3.3]heptane-6-carbonyl}piperidin-4-yl)-1H-pyrazol-4-yl]-1-methyl-1H-pyrazolo[4,3-c]pyridin-3-yl}-2-[(1S)-1-(4-fluorophenyl)ethoxy]phenyl)-1,1-difluoromethanesulfonamide], the concentration for half-maximal inhibition (IC50) in experiment [1] is less than 1 µM. The dissociation constant Kd at human MLKL (full length) was in the range of 0.01 to 1 µM. The DC50 at endogenous MLKL in U937 and on endogenous MLKL in MDF was less than 1 µM each time.
As for `C[C@H](Oc1cc(-c2nn(C)c3c(-c4cnn(C5CCN(C(=O)c6ccc(CNc7cccc8c7C(=O)N(C7CCC(=O)NC7=O)C8=O)cc6)CC5)c4)cnc(N)c23)ccc1NS(=O)(=O)C(F)F)c1ccc(F)cc1` (stereo partly drawn) [Compound 1093, N-{4-[4-amino-7-(1-{1-[4-({[2-(2,6-dioxopiperidin-3-yl)-1,3-dioxo-2,3-dihydro-1H-isoindol-4-yl]amino}methyl)benzoyl]piperidin-4-yl}-1H-pyrazol-4-yl)-1-methyl-1H-pyrazolo[4,3-c]pyridin-3-yl]-2-[(1S)-1-(4-fluorophenyl)ethoxy]phenyl}-1,1-difluoromethanesulfonamide], the half-maximal inhibitory concentration (IC50) in experiment [1] was less than 1 µM. Further, the equilibrium dissociation constant (Kd) at human MLKL (full length) fell in the range of 0.01 to 1 µM. Also, the DC50 at endogenous MLKL in U937 and at endogenous MLKL in MDF was less than 1 µM throughout.
